Source: patent US8937056B2, “Multikinase inhibitors for use in the treatment of cancer” (Eisai R&D Management Co., Ltd., priority 2007, dated 2015)

Legend:
[1] = molecular target: MEK1 (Homo sapiens, UniProt Q02750); assay: Biochemical MEK1 assay (ELISA, ERK2-coated plate)
Protocol: A biochemical MEK1 assay was carried out to investigate whether compounds of formula (I) or (II), e.g., compounds 029, 091, 106 and 114 are MEK1 inhibitors. Biochemical MEK1 inhibition of the compounds was assessed using an ELISA assay. All assays were performed in a 96 well format. A plate coated with ERK2, a substrate protein for MEK1 was used for biochemical MEK1 assay. In a final volume of 40 μL, MEK1 (25 ng) was incubated with 50 mmol/L HEPES, 20 mmol/L MgCl2, 4 mmol/L MnCl2, and 0.5 mmol/L Na3VO4 in the absence or presence of the test compounds. The reaction was initiated by the addition of 1 μmol/L ATP. After incubation for 40 minutes at 30° C., the reaction mixture was discarded and the plate was then washed 4 times with 0.05% Tween20/PBS. Each well was incubated with 100 μL of 1:4000 diluted phospho-ERK1/2 monoclonal antibody (Cell Signaling, MA) for 1.5 hours at room temperature. The antibody was then discarded and the plate was washed 6 times with 0.05% Tween20/PBS. Finally, 100 μL of 1:2000 diluted of HRP conjugated anti-mouse IgG antibody (Cell Signaling, MA) was added. After incubation for 90 minutes, this antibody was discarded and the plate was washed 8 times with 0.05% Tween20/PBS. Phosphorylated ERK2 was then visualized by peroxidase reaction, and read at 450 nm. FIG. 2A is a table depicting results from MEK1 assays.

[2] = molecular target: Abl kinase (Homo sapiens, UniProt P00519); assay: Kinase inhibition, full range of concentrations; assay type: biochemical; conditions: 10 μM ATP, duplicate measurements
Sequence of Abl kinase (P00519 whole entry): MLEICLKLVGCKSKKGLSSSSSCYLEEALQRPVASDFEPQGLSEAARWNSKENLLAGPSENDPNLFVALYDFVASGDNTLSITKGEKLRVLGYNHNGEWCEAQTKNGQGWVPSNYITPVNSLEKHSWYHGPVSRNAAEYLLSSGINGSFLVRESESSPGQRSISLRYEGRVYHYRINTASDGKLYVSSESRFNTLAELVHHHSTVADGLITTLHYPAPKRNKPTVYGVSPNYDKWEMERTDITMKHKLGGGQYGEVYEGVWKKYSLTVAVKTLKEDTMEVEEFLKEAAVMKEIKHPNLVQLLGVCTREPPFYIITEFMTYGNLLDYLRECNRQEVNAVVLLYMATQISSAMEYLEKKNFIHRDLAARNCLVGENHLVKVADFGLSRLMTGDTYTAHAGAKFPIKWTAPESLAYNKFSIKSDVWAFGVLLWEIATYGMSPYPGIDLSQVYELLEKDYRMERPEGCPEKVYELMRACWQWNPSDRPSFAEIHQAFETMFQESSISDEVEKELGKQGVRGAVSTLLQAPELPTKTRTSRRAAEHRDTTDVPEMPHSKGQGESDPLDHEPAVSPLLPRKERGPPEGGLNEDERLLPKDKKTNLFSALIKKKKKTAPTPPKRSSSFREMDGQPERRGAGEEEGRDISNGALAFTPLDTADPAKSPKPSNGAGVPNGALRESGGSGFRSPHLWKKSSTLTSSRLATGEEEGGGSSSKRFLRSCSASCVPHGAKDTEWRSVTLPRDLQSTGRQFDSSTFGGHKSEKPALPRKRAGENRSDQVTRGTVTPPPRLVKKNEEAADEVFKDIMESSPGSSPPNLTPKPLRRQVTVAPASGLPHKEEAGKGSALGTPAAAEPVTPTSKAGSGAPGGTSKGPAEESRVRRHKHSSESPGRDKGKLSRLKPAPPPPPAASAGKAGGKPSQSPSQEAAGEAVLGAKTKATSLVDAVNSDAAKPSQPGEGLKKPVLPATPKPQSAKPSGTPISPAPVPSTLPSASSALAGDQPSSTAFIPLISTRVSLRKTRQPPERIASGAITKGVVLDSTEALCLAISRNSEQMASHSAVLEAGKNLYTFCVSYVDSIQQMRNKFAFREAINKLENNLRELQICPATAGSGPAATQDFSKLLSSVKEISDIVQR
Protocol: (§1) In a final reaction volume of 25 μL, each human enzyme was incubated with appropriate buffer. The reaction was initiated by the addition of the MgATP mix with [γ^33P-ATP]. After incubation for 40 minutes at room temperature, the reaction was stopped by the addition of 5 μL of a phosphoric acid solution. All assays were performed at an ATP concentration of 10 μM.
(§2) 10 μL of the reaction was spotted onto a P30 filtermat and washed three times for 5 minutes in a phosphoric acid solution. ^33P transferred to a substrate peptide was then determined by scintillation counting. The results were expressed as a percentage of that in control incubations.
(§3) Furthermore, inhibitory activities of the compounds were confirmed against six of these kinases with a full range of concentrations. Three cytoplasmic Src family kinases were studied: c-Src, Fyn and Lyn. We also studied cytoplasmic Abl kinase and two receptor tyrosine kinases: Flt3, and TrkB. A standard ATP concentration of 10 μM was used in all reactions. All experiments were conducted with duplicate measurements. […] TrkB and members of the Src family were the most sensitive enzymes to Compound 091 inhibition.

[3] = molecular target: Fyn (Homo sapiens, UniProt P06241); assay: Kinase inhibition, full range of concentrations; assay type: biochemical; conditions: 10 μM ATP, duplicate measurements
Sequence of Fyn (P06241 whole entry): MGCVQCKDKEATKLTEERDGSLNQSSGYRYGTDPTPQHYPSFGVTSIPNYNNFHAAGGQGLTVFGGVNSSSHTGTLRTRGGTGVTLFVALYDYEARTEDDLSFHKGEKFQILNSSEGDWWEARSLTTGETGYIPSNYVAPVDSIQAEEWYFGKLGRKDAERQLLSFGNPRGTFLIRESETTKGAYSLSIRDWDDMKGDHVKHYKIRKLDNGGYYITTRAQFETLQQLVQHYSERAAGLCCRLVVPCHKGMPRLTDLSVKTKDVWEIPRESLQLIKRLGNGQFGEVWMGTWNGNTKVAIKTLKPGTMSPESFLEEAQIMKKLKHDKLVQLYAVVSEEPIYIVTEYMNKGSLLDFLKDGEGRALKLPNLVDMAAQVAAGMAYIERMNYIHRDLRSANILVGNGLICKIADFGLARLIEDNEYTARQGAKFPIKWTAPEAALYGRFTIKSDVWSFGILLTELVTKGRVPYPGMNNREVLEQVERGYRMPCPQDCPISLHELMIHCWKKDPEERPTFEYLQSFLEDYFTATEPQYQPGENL
Protocol: as §1, §2, §3

[4] = molecular target: Lyn (Homo sapiens, UniProt P07948); assay: Kinase inhibition, full range of concentrations; assay type: biochemical; conditions: 10 μM ATP, duplicate measurements
Sequence of Lyn (P07948 whole entry): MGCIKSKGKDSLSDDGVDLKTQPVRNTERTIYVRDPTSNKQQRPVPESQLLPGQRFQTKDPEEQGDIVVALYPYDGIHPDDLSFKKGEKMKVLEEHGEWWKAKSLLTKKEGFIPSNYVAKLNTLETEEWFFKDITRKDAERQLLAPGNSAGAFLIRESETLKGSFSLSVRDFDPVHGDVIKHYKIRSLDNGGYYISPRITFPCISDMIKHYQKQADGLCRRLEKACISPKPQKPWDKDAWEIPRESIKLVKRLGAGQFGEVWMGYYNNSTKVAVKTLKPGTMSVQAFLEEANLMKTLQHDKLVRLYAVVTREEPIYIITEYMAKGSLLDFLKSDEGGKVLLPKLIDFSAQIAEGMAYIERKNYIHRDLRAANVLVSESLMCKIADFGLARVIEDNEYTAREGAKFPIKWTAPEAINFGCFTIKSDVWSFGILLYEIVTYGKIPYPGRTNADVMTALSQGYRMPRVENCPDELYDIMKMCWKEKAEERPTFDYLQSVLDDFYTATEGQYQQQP
Protocol: as §1, §2, §3

[5] = molecular target: TrkB (Homo sapiens, UniProt Q16620); assay: Kinase inhibition, full range of concentrations; assay type: biochemical; conditions: 10 μM ATP, duplicate measurements
Sequence of TrkB (Q16620 32-822): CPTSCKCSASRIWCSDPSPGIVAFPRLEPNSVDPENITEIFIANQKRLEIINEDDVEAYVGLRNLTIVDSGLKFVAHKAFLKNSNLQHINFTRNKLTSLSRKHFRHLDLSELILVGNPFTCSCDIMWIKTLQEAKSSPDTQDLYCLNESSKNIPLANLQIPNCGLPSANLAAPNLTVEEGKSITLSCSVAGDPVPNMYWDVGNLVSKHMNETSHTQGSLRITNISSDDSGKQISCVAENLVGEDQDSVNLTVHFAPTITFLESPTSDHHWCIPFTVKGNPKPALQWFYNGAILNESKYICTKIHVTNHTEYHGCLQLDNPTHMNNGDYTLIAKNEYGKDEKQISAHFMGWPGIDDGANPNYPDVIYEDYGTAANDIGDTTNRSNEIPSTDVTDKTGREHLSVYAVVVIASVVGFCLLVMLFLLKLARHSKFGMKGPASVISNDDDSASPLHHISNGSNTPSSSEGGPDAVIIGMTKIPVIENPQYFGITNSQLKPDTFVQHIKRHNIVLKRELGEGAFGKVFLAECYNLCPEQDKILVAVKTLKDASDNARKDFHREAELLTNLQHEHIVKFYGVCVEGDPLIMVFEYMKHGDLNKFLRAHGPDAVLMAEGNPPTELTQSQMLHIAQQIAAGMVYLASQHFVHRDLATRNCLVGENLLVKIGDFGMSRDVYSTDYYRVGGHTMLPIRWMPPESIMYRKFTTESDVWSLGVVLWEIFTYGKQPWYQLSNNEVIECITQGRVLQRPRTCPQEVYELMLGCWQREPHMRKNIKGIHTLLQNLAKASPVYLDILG
Protocol: as §1, §2, §3

[6] = molecular target: c-Src (Homo sapiens, UniProt P12931); assay: Kinase inhibition, full range of concentrations; assay type: biochemical; conditions: 10 μM ATP, duplicate measurements
Sequence of c-Src (P12931 whole entry): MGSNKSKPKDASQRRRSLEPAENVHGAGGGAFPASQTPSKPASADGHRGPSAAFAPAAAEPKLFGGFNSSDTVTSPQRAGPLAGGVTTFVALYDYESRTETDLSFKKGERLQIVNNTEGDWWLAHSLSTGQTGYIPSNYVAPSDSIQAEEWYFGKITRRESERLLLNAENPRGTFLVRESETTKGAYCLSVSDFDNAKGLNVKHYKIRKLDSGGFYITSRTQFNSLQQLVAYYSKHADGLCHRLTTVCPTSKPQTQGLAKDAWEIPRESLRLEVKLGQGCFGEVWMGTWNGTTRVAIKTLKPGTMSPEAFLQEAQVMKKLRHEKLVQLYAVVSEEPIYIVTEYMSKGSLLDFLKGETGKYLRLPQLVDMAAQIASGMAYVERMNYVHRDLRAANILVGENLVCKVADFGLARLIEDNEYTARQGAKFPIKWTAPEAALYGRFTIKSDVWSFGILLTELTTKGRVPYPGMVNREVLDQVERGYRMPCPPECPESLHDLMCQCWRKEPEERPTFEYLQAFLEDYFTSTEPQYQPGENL
Protocol: as §1, §2, §3

[7] = test system: LOX human melanoma xenografts; assay: In vivo antitumor activity in LOX xenografts; parameters: species or system mice
Protocol: A study was carried out to investigate anticancer activity of compounds 091 and 106 in human LOX BRAF mutated melanoma xenografts. The compounds were evaluated against subcutaneous-implanted LOX human melanoma xenografts in female athymic mice.
The human melanoma cell line, LOX which has B-RAF (V600E) mutation was transplanted subcutaneously into female nude mice. The experiment consisted of 8 mice per group on the first day of treatment. Compounds were independently administered intravenously for two weekly rounds of five daily injections (q1d×5) with a two-day rest period between the rounds. Compounds were administered in a vehicle volume of 0.1 mL/10 g of body weight.
The general health of the mice was monitored daily. Tumor dimensions and body weights were recorded twice a week starting on the first day of treatment. Tumor weights were calculated using the equation (l×w^2)/2, where 1 and w refer to the larger and smaller dimensions collected at each measurement. When the mean tumor volume reached 128 mm^3, vehicle (cremophor:ethanol:5% glucose; 1:1:8) or one of the test compounds (10, 20, 30, or 40 mg/kg) was administered to mice (8/group).

[8] = test system: human hematologic cancer cell lines; assay: Antiproliferative effects in hematologic cancer cell lines (MTT assay); assay type: cell-based; conditions: two cell lines derived from B-cell non-Hodgkin's lymphoma, 96 h
Protocol: A study was carried out to investigate anticancer activity of compounds 091 and 106 in a panel of human hematologic cancer cell lines in vitro. Antiproliferative effects of compounds 091 and 106 were evaluated in 7 human cancer cell lines representing several different cancer types of hematologic malignancy. […] Cell growth was assessed using the MTT assay.

[9] = Blood brain barrier penetration; conditions: in vivo

Sequence of MEK1 (Q02750 whole entry): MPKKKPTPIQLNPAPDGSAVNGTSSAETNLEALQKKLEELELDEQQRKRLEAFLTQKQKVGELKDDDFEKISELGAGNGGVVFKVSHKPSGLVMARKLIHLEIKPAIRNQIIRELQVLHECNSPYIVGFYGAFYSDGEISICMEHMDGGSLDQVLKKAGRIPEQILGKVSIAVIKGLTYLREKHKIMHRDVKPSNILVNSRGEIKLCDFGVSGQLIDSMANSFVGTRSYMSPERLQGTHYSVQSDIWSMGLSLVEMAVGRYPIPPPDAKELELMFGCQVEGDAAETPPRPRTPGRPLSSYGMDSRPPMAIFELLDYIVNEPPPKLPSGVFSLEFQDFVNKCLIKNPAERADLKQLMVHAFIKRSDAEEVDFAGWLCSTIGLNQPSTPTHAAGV

Question: With `CNc1cc(O)c2c(c1)/C=C/C[C@H](O)[C@H](O)C(=O)/C=C\[C@@H](C)[C@H](C)OC2=O` [Compound 091] as the compound, how does the MEK1 inhibitory activity ([1]; 1 μmol/L ATP) read?
Answer: Its MEK1 inhibitory activity is “low nM activity”.

Question: And the “MEK1 inhibitory activity, dependence on ATP” value ([1]; at a low concentration of ATP)?
Answer: Its value is “more potent”.

Question: And the IC50 [2]?
Answer: Its IC50 is under 214 nM.

Question: And the IC50 [3]?
Answer: The IC50 was under 214 nM.

Question: And the IC50 [4]?
Answer: Its IC50 is under 214 nM.

Question: And the IC50 [5]?
Answer: The IC50 was under 214 nM.

Question: What about the IC50 [6] of the same compound?
Answer: Its IC50 is under 214 nM.

Question: What about the tumor regression ([7]; 10 mg/kg i.v., for the first three weeks) of the same compound?
Answer: Its tumor regression is 100%.

Question: And the tumor regression ([7]; 20 mg/kg i.v., in all mice)?
Answer: The tumor regression was 100%.

Question: And the tumor regression ([7]; 30 mg/kg i.v., in all mice)?
Answer: The tumor regression was 100%.

Question: And the tumor regression ([7]; 40 mg/kg i.v., in all mice)?
Answer: The tumor regression was 100%.

Question: What about the “tumor status of mice at the end of the study” value ([7]; mice given 091) of the same compound?
Answer: The value was “tumor free”.

Question: What about the “sensitivity of cell growth” value [8] of the same compound?
Answer: The value was “sensitive”.

Question: And the “brain/plasma AUC0-t ratio” value [9]?
Answer: Its value is 3.170.
